Results reported in publication PMC9930359, “Cytotoxicity of the methanol extracts and compounds of Brucea antidysenterica (Simaroubaceae) towards multifactorial drug-resistant human cancer cell lines” (BMC Complementary Medicine and Therapies, 2023).
≈ marks a conversion by molar mass, not a printed value.

Key:
CCRF-CEM leukemia cells = test: Resazurin reduction assay (RRA), cytotoxicity; format: cell-based; conditions: Homo sapiens, 72 h
Description: (§3) In this work, 9 cancer cell lines with various drug resistance patterns as well as AML12 hepatocytes as normal control cell line were used. […] The AML12 hepatocytes were used for the comparison of the activities of the samples with HepG2 [40]. […] The RPMI-1640 medium was used for the culture of CCRF-CEM and CEM/ADR5000 cells whilst DMEM medium was used for carcinoma cells. The culture media were supplemented (complete medium) with 10% fetal bovine serum and 1% penicillin/streptomycin (Invitrogen, Eggenstein, Germany). […] To maintain the resistance phenotype of the resistant carcinoma cell lines such as MDA-MB-231/BCRP and HCT116 p53^−/−, and U87MG.ΔEGFR cells, the complete DMEM medium containing geneticin at 800 ng/ml and 400 µg/ml, respectively were used [41, 42].
(§4) Cells were cultured in a standard condition consisted of a humidified 5% CO2 atmosphere and an incubation temperature of 37 °C. The tested concentration ranges were 0.63—80 µg/mL for the botanicals and 0.78—100 µM for phytochemicals. The incubation time of the treated cells was 72 h, and the fluorescence was measured with Infinite M2000 Pro™ plate reader (Tecan, Crailsheim, Germany). The wavelengths used were 544 nm for the excitation and 590 nm for the emission. […] The degree of resistance (D.R.) was set as the ratio of the IC50 values of samples in the resistant cell line vs that of corresponding sensitive cell line. The selectivity index (S.I.) was the ratio of the IC50 value of AML12 hepatocytes vs. that of HepG2 cells [13, 48].

CEM/ADR5000 cells = test: Resazurin reduction assay (RRA), cytotoxicity; format: cell-based, human; conditions: for IC50: Homo sapiens, CEM/ADR5000, 72 h; for Degree of resistance (D.R.): ratio of IC50 CEM/ADR5000 vs CCRF-CEM
Method: (§5) The RPMI-1640 medium was used for the culture of CCRF-CEM and CEM/ADR5000 cells whilst DMEM medium was used for carcinoma cells. The culture media were supplemented (complete medium) with 10% fetal bovine serum and 1% penicillin/streptomycin (Invitrogen, Eggenstein, Germany). […] To maintain the resistance phenotype of the resistant carcinoma cell lines such as MDA-MB-231/BCRP and HCT116 p53^−/−, and U87MG.ΔEGFR cells, the complete DMEM medium containing geneticin at 800 ng/ml and 400 µg/ml, respectively were used [41, 42].
as §4

MDA-MB-231-pcDNA cells = test: Resazurin reduction assay (RRA), cytotoxicity; format: cell-based; conditions: Homo sapiens, 72 h
Description: as §3, §4

HCT116 p53+/+ cells = test: Resazurin reduction assay (RRA), cytotoxicity; format: cell-based; conditions: Homo sapiens, HCT-116, 72 h
Description: as §3, §4

HCT116 p53−/− cells = test: Resazurin reduction assay (RRA), cytotoxicity; format: cell-based, human; conditions: for IC50: Homo sapiens, HCT-116, HCT116 p53−/−, 72 h; for Degree of resistance (D.R.): ratio of IC50 HCT116 p53−/− vs HCT116 p53+/+
Method: as §5, §4

U87MG cells = test: Resazurin reduction assay (RRA), cytotoxicity; format: cell-based; conditions: Homo sapiens, U-87 MG, 72 h
Description: as §3, §4

U87MG.ΔEGFR cells = test: Resazurin reduction assay (RRA), cytotoxicity; format: cell-based, human; conditions: for IC50: Homo sapiens, U87MG.ΔEGFR, 72 h; for Degree of resistance (D.R.): ratio of IC50 U87.MGΔEGFR vs U87.MG
Method: as §5, §4

HepG2 cells = test: Resazurin reduction assay (RRA), cytotoxicity; format: cell-based; conditions: Homo sapiens, HepG2, 72 h
Description: as §3, §4

AML12 hepatocytes = test: Resazurin reduction assay (RRA), cytotoxicity on normal hepatocytes; format: cell-based; conditions: for IC50: Mus musculus, AML12 normal hepatocytes, 72 h; for Selectivity index (S.I.): ratio of IC50 in AML12 vs IC50 in HepG2 cells
Method: as §5, §4

MDA-MB-231-BCRP cells = test: Resazurin reduction assay (RRA), cytotoxicity; conditions: for IC50: Homo sapiens, MDA-MB-231/BCRP, 72 h; for Degree of resistance (D.R.): ratio of IC50 MDA-MB-231-BCRP vs MDA-MB-231-pcDNA
Method: as §5, §4

CCRF-CEM cells [1] = test: Cell cycle distribution by flow cytometry (PI staining); format: cell-based, human
Method: The modification of the cell cycle distribution of CCRF-CEM induced by the botanicals BAL, the flavonolignan 2, the control drug, doxorubicin, or the solvent control DMSO was determined by flow cytometry under the previously reported work conditions. BAL and compound 2 were applied to CCRF-CEM cells (1 ml; 1 × 10^6 cells) at their ¼ IC50, ½ IC50, IC50, and 2 × IC50 values. The whole was then incubated for 24 h as earlier indicated followed by the analysis of the cell cycle distribution with a BD Accury C6 Flow Cytometer (BD Biosciences, Heidelberg, Germany). Assays were performed three times in triplicates.

CCRF-CEM cells [2] = test: Apoptosis by annexin V/PI staining and flow cytometry; format: cell-based, human; conditions: 2 x IC50, 24 h
Description: Afterward, apoptosis detection was undertaken with a fluorescein isothiocynate (FITC)-conjugated annexin V/PI assay kit (eBioscience™ Annexin V; Invitogen, San Diego, USA). The measurement was done using BD Accury C6 Flow Cytometer (BD Biosciences) under experimental conditions previously reported. The assays were done thrice independently with three repetitions each.

[3] = test system: caspase 8 in CCRF-CEM cells; test: Caspase-Glo assay; format: cell-based, human; conditions: 2 × IC50, 6 h
Method: (§1) The activity of caspases in CCRF-CEM cells treated with BAL and the flavonolignan 2 was determined by Caspase-Glo assay. […] The whole was then incubated for 6 h (standard culture conditions) and the activity of caspases was detected by spectrophotometry as previously described.

[4] = test system: caspase 9 in CCRF-CEM cells; test: Caspase-Glo assay; format: cell-based, human; conditions: 2 × IC50, 6 h
Method: as §1

CCRF-CEM cells [5] = test: Mitochondrial membrane potential (MMP), JC-1 staining, flow cytometry; format: cell-based, human; conditions: 2 × IC50, 24 h
Method: (§2) The modification of the MMP as well as the ROS levels after the application of BAL, and flavonolignan 2 at ¼ IC50, ½ IC50, IC50, and 2 × IC50 to CCRF-CEM cells (1 × 10^6) was performed by flow cytometry. DMSO was used as solvent control while valinomycin served as a positive control. The cells were incubated for 24 h and further stained for 30 min with JC-1 [45] and measured (1 × 10^4 cells) in an LSR-Fortessa FACS analyzer (Becton–Dickinson). For ROS determination, CCEF-CEM cells were similarly treated BAL, the flavonolignan 2, hydrogen peroxide (H2O2; positive control), DMSO (solvent control) as in the MMP analysis, then incubated for 24 h. They were further stained with H2DCFH-DA and measured (1 × 10^4 cells) in an LSR-Fortessa FACS analyzer.

CCRF-CEM cells [6] = test: Reactive oxygen species (ROS), H2DCFH-DA staining, flow cytometry; format: cell-based, human
Method: as §2

nine cancer cell lines = test: RRA cytotoxicity, summary over the panel; format: cell-based, human; conditions: number out of 9 cancer cell lines
Description: as §3
Cells were cultured in a standard condition consisted of a humidified 5% CO2 atmosphere and an incubation temperature of 37 °C. The tested concentration ranges were 0.63—80 µg/mL for the botanicals and 0.78—100 µM for phytochemicals. The incubation time of the treated cells was 72 h, and the fluorescence was measured with Infinite M2000 Pro™ plate reader (Tecan, Crailsheim, Germany). The wavelengths used were 544 nm for the excitation and 590 nm for the emission. […] The degree of resistance (D.R.) was set as the ratio of the IC50 values of samples in the resistant cell line vs that of corresponding sensitive cell line. […]

[7] = test system: 697 pre-B acute lymphoblastic leukemia cell line; parameters: method as in PMID 23280566; conditions: 697 pre-B ALL ref 59; cited from earlier work
L-1210 leukemia cells = test system: L-1210 leukemia cells; parameters: method as in PMID 1800632; conditions: murine L-1210 ref 60; cited from earlier work
Tmolt3 leukemia cells = test system: Tmolt3 leukemia cells; parameters: method as in PMID 1800632; conditions: Tmolt3 ref 60; cited from earlier work
[8] = test system: KB nasopharynx cancer cells; parameters: method as in PMID 1800632; conditions: KB ref 60; cited from earlier work
[9] = test system: S-480 colon adenocarcinoma; parameters: method as in PMID 1800632; conditions: S-480 ref 60; cited from earlier work
[10] = test system: TE-418 osteosarcoma cells; parameters: method as in PMID 1800632; conditions: TE-418 ref 60; cited from earlier work
HeLa-S3 uterine cells = test system: HeLa-S3 uterine cells; parameters: method as in PMID 1800632; conditions: HeLa-S3 ref 60; cited from earlier work
[11] = test system: MB-9812 lung cancer cells; parameters: method as in PMID 1800632; conditions: MB-9812 ref 60; cited from earlier work
SW480 colon cancer cells = test system: SW480 colon cancer cells; parameters: method as in PMID 24018191; conditions: SW480 ref 61; cited from earlier work

## CC(C)=CC(=O)c1c[nH]c2ccccc12 [Compound 1, 3, (3-(3-methyl-1-oxo-2-butenyl))1H indole]
CCRF-CEM leukemia cells
  IC50: 19.1 ± 1.56 µM
CEM/ADR5000 cells
  IC50: 32 ± 2.05 µM
  Degree of resistance (D.R.): 1.68
MDA-MB-231-pcDNA cells
  IC50: 13.4 ± 0.93 µM
HCT116 p53+/+ cells
  IC50: 23.9 ± 2.32 µM
HCT116 p53−/− cells
  IC50: 36.4 ± 3.04 µM
  Degree of resistance (D.R.): 1.53
U87MG cells
  IC50: 24.2 ± 1.16 µM
U87MG.ΔEGFR cells
  IC50: 36.3 ± 3.01 µM
  Degree of resistance (D.R.): 1.50
HepG2 cells
  IC50: 39.9 ± 2.84 µM
AML12 hepatocytes
  IC50: > 100 µM
  Selectivity index (S.I.): > 2.50
MDA-MB-231-BCRP cells
  IC50: 47.5 ± 2.75 µM
  Degree of resistance (D.R.): 3.54

## COc1cc([C@H]2Oc3cc(-c4cc(=O)c5c(O)cc(O)cc5o4)ccc3O[C@@H]2CO)ccc1O [Compound 2, hydnocarpin]
CCRF-CEM leukemia cells
  IC50: 4.28 ± 0.31 µM
CEM/ADR5000 cells
  IC50: 3.07 ± 0.18 µM
  Degree of resistance (D.R.): 0.72
MDA-MB-231-pcDNA cells
  IC50: 4.07 ± 0.37 µM
HCT116 p53+/+ cells
  IC50: 11.4 ± 0.98 µM
HCT116 p53−/− cells
  IC50: 6.74 ± 0.33 µM
  Degree of resistance (D.R.): 0.59
U87MG cells
  IC50: 9.29 ± 0.73 µM
U87MG.ΔEGFR cells
  IC50: 5.42 ± 0.44 µM
  Degree of resistance (D.R.): 0.58
HepG2 cells
  IC50: 2.73 ± 0.19 µM
AML12 hepatocytes
  IC50: 51.2 ± 3.2 µM
CCRF-CEM cells [1]; 1/4 × IC50, 24 h
  cells in sub-G0/G1 phase: 3.41 ± 0.2%
CCRF-CEM cells [1]; 2 × IC50, 24 h
  cells in sub-G0/G1 phase: 38.40 ± 2.6%
CCRF-CEM cells [2]
  Q2-LR: early apoptotic cells annexin (+)/PI (-): 9.4 ± 0.8%
  Q2-UR: annexin V (+)/PI (+) late apoptotic or necrotic cells: 18.5 ± 1.3%
[3]
  increase of activity of caspase 8: 2.12 fold
[4]
  increase of activity of caspase 9: 2.67 fold
CCRF-CEM cells [5]
  Q1: cells with undamaged (intact) MMP: 10.4%
  Q2: cells with MMP loss: 70.5%
  cells with disrupted MMP (Q3 and Q4): 19.1%
CCRF-CEM cells [6]; 1/4 × IC50, 24 h
  ROS levels in treated cells: 6.00%
CCRF-CEM cells [6]; 2 × IC50, 24 h
  ROS levels in treated cells: 49.00%
Nine cancer cell lines
  cancer cell lines with IC50 ≤ 10 μM: 8/9
other
  melting point: 261 to 263 °C
[7]
  IC50: 8.7 µM
L-1210 leukemia cells
  IC50: 3.65 µg/mL (≈ 7.86 µM)
Tmolt3 leukemia cells
  IC50: 32.94 µg/mL (≈ 70.9 µM)
[8]
  IC50: 1.15 µg/mL (≈ 2.48 µM)
[9]
  IC50: 2.00 µg/mL (≈ 4.31 µM)
[10]
  IC50: 2.14 µg/mL (≈ 4.61 µM)
HeLa-S3 uterine cells
  IC50: 2.02 µg/mL (≈ 4.35 µM)
[11]
  IC50: 8.18 µg/mL (≈ 17.6 µM)
SW480 colon cancer cells
  IC50: 20.3 µM
MDA-MB-231-BCRP cells
  IC50: 6.65 ± 0.24 µM
  Degree of resistance (D.R.): 1.63

## C[C@@H](O)C1CCC2C3CC=C4C[C@@H](O[C@@H]5OC[C@H](O)[C@H](O)[C@H]5O)CC[C@]4(C)C3CC[C@@]21C (stereo partly drawn) [Compound 3, (20R)-O-(3)-α-L-arabinopyranosyl-pregn-5-en-3β,20-diol]
CCRF-CEM leukemia cells
  IC50: 28.4 ± 1.76 µM
CEM/ADR5000 cells
  IC50: 73.9 ± 5.32 µM
  Degree of resistance (D.R.): 2.60
MDA-MB-231-pcDNA cells
  IC50: > 100 µM
HCT116 p53+/+ cells
  IC50: > 100 µM
HCT116 p53−/− cells
  IC50: 50.5 ± 3.81 µM
  Degree of resistance (D.R.): < 0.50
U87MG cells
  IC50: > 100 µM
U87MG.ΔEGFR cells
  IC50: > 100 µM
HepG2 cells
  IC50: 85.2 ± 5.7 µM
AML12 hepatocytes
  IC50: > 100 µM
  Selectivity index (S.I.): > 1.17
other
  melting point: 258 to 260 °C
MDA-MB-231-BCRP cells
  IC50: > 100 µM

## C[C@@H](O)C1CCC2C3CC=C4C[C@@H](O[C@@H]5OC[C@H](O)[C@H](O)[C@H]5O[C@@H]5O[C@H](CO)[C@@H](O)[C@H](O)[C@H]5O)CC[C@]4(C)C3CC[C@@]21C (stereo partly drawn) [Compound 4, (20R)-O-(3)-β-D-glucopyranosyl(1 → 2)-α-L-arabinopyranosyl-pregn-5-en-3β,20-diol]
CCRF-CEM leukemia cells
  IC50: 32 ± 2.16 µM
CEM/ADR5000 cells
  IC50: > 100 µM
  Degree of resistance (D.R.): > 3.13
MDA-MB-231-pcDNA cells
  IC50: > 100 µM
HCT116 p53+/+ cells
  IC50: > 100 µM
HCT116 p53−/− cells
  IC50: 32.2 ± 2.37 µM
  Degree of resistance (D.R.): < 0.32
U87MG cells
  IC50: 28.3 ± 2.08 µM
U87MG.ΔEGFR cells
  IC50: 28.3 ± 1.66 µM
  Degree of resistance (D.R.): 1.00
HepG2 cells
  IC50: 31.2 ± 2.11 µM
AML12 hepatocytes
  IC50: > 100 µM
  Selectivity index (S.I.): > 3.21
other
  melting point: 258 to 260 °C
MDA-MB-231-BCRP cells
  IC50: > 100 µM

## O=c1ccc2nccc3c4ccccc4n1c23 [Compound 5, canthin-6-one]
CCRF-CEM leukemia cells
  IC50: 44.2 ± 3.52 µM
CEM/ADR5000 cells
  IC50: > 100 µM
  Degree of resistance (D.R.): > 2.26
MDA-MB-231-pcDNA cells
  IC50: > 100 µM
HCT116 p53+/+ cells
  IC50: 24.7 ± 2.16 µM
HCT116 p53−/− cells
  IC50: 21 ± 1.72 µM
  Degree of resistance (D.R.): 0.85
U87MG cells
  IC50: 19.6 ± 1.55 µM
U87MG.ΔEGFR cells
  IC50: 21.1 ± 1.49 µM
  Degree of resistance (D.R.): 1.08
HepG2 cells
  IC50: 26.1 ± 1.63 µM
AML12 hepatocytes
  IC50: > 100 µM
  Selectivity index (S.I.): > 3.83
MDA-MB-231-BCRP cells
  IC50: > 100 µM
